In PMC12641998, “Development of Cell-Permeable Adenylosuccinate Lyase Inhibitor” (Methods and Protocols, 2025):
“Also recorded” adds a separate entry of the source.

What was measured:
recombinant human ADSL [1] = biological target: T1, recombinant human ADSL (Homo sapiens, UniProt P30566); assay: Screening of LOPAC 1280 compounds for ADSL inhibitors; assay type: biochemical; conditions: 2 µM compound, 0.2 µM ADSL, 0.2 mM S-AMP
T1 construct: made in house
T1 sequence (P30566 1-484): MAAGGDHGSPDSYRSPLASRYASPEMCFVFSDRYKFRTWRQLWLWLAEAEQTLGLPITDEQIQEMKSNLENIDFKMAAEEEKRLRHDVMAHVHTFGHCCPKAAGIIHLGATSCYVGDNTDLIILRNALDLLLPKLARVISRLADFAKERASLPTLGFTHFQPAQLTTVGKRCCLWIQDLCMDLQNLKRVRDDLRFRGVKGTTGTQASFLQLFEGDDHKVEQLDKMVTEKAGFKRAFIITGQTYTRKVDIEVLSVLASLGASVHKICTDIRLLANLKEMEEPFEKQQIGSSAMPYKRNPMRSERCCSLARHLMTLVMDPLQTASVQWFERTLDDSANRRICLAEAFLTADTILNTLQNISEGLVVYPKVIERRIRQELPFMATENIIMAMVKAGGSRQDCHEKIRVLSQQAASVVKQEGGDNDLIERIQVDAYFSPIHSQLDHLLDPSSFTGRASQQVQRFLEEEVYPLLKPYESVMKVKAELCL
Procedure: In each well of UV-transparent 384-well plates, a 45 μL solution containing 0.20 μM recombinant human ADSL and 2 μM screening compounds from the LOPAC 1280 library was placed. The reaction buffer contained 20 mM HEPES, pH 7.9, 50 mM KCl, 1 mM MgCl2, 1 mM DTT, and 1% (v/v) DMSO. Following a 30 min-long incubation at ambient temperature, the reaction was initiated by the addition of S-AMP (final: 0.20 mM). The reaction was monitored by measuring A280 every 10 min for 4 h at 37 °C.
To identify ADSL inhibitors, the effects of LOPAC® 1280 library compounds on the activity of recombinant human ADSL were measured (Figure 2A). […] ADSL activity was monitored by measuring changes in A280 for 4 h at 37 °C. Compounds inhibiting ADSL activity by more than three standard deviations (Z-score < −3, Figure 2A) were counted as hits.

recombinant human ADSL [2] = biological target: T1, recombinant human ADSL; assay: ADSL enzyme activity assay (A280); assay type: biochemical; conditions: for effect on ADSL in subsequent tests after the screen: follow-up of screening hits
Procedure: ADSL activity assays were performed as described in the literature. In brief, 0.60 mL solution containing recombinant human ADSL (0–2 μM), the test compound, 20 mM HEPES, pH 7.9, 50 mM KCl, 1 mM MgCl2, 1 mM DTT, and 1% DMSO was placed in a semi-micro quartz cuvette. This solution was kept at 37 °C for 30 min. The reaction was initiated by the addition of S-AMP or SAICAR to a final concentration of 0–2 mM (typically 0.20 mM). A280 was monitored every 5 s for 1 h using a Beckman DU650 spectrophotometer.

ADSL in HeLa cells = assay: Cellular SAICAR, AICAR, S-AMP and AMP levels by HILIC-HPLC-MS; assay type: cell-based, human; conditions: 12 h, triethylammonium salt form
Procedure: Cellular experiments and the measurement of nucleotides were carried out as we previously reported. […] The media were removed, and cells were washed five times with Dulbecco’s phosphate-buffered saline. Cells were lysed in ice-cold extraction solvent (95% methanol with 10 mM triethylammonium bicarbonate). The lysates were transferred to a centrifuge tube. Debris was removed by centrifugation at 150,000× g for 10 min at 4 °C. The supernatant was passed through Amicon Ultracel centrifugal filters (molecular weight cut-off 3 kDa). The filtrates were dried in vacuum and dissolved in 0.10 mL of extraction solvent. A 10 μL portion of this solution was subjected to HILIC-MS as we previously described. To measure cell proliferation, cells were detached by trypsin-EDTA and counted using a Moxi-Z cell counter as we previously described.
Next, we asked whether 1 inhibits ADSL in mammalian cells. […] Cells were lysed, and the amounts of SAICAR and S-AMP were measured by HILIC-HPLC-MS as we previously reported (Figure 6).

[3] = Permeability through an in vitro model of blood-brain barrier; assay type: in vitro ADME; conditions: Figure S7, n = 3
Text: (1 picture or pasted object on this page, not shown here)

With N=C(NO)NCCC[C@H](N)C(=O)O [N^ω-hydroxyl-L-arginine] as the molecule, how does the “screening outcome (hit: Z-score < −3)” value (recombinant human ADSL [1]) read?
The value was “potential ADSL inhibitors”.

And the “effect on ADSL in subsequent tests after the screen” value (recombinant human ADSL [2])?
The value was “ADSL became aggregated”.

For CCCCc1oc2ccccc2c1C(=O)c1cc(I)c(OCCN(CC)CC)c(I)c1 [amiodarone], which “screening outcome (hit: Z-score < −3)” value (recombinant human ADSL [1]) is on record?
Its value is “potential ADSL inhibitors”.

What about the “effect on ADSL in subsequent tests after the screen” value (recombinant human ADSL [2]) of the same molecule?
The value was “did not inhibit ADSL”.

Which “inhibition of ADSL” value (recombinant human ADSL [2]; concentrations tested up to 30 μM) does the source give for O=C(Nc1ccccc1)c1cccc(C(=O)Nc2ccccc2)c1 [Compound 3, N, N’-diphenylisopthalamide] here?
Its value is “did not inhibit ADSL”.

What does the source list for O=C(Nc1cc(C(=O)Nc2ccc(S(=O)(=O)O)cc2S(=O)(=O)O)cc(C(=O)Nc2ccc(S(=O)(=O)O)cc2S(=O)(=O)O)c1)Nc1cc(C(=O)Nc2ccc(S(=O)(=O)O)cc2S(=O)(=O)O)cc(C(=O)Nc2ccc(S(=O)(=O)O)cc2S(=O)(=O)O)c1 [NF-449]?
screening outcome (hit: Z-score < −3) (recombinant human ADSL [1]): might be an inhibitor of ADSL; mechanism of ADSL inhibition (recombinant human ADSL [2]; Lineweaver-Burk plot): competitive; Ki (recombinant human ADSL [2]; Lineweaver-Burk plot, read-out: Ki, inhibition of ADSL): 240 nM; IC50 (recombinant human ADSL [2]; S-AMP as substrate (0.2 mM), read-out: IC50, inhibition of ADSL): 1400 nM

For O=C(Nc1ccccc1S(=O)(=O)O)c1cccc(C(=O)Nc2ccccc2S(=O)(=O)O)c1 [Compound 1, 2,2’-(1,3-phenylenebis(carbonylimino))bisbenzenesulfonate], which “effect on the cellular level of S-AMP and AMP” value (ADSL in HeLa cells) is on record?
Its value is “less effect”.

And the “increase of cellular level of SAICAR” value (ADSL in HeLa cells)?
The value was “approximately 2.5 fold”.

And the “level of AICAR, lower by” value (ADSL in HeLa cells)?
The value was “approximately 30%”.

What about the EC50 (ADSL in HeLa cells; Homo sapiens, read-out: EC50, increase of cellular level of SAICAR) of the same molecule?
The EC50 was 400 nM.

And the “permeability through blood–brain barrier in vitro” value [3]?
Its value is “limited permeability; also recorded: comparable to the low -permeability standard”.
